In ChEMBL document CHEMBL1955862, “Novel N'-benzylidene benzofuran-3-carbohydrazide derivatives as antitubercular and antifungal agents” (2012) one finds MIC data, which are given here for 21 compounds.

≈ marks a conversion by molar mass, not a printed value. Some results are limits rather than exact numbers.

Experiment [1] deals with Mycobacterium tuberculosis. The experiment can be described thus: Antituberculosis activity against Mycobacterium tuberculosis H37Rv by REMA method. In kind it is functional.
Experiment [2] deals with Candida albicans. Description: Antifungal activity against Candida albicans. The format is functional.

A word on the MIC: it is the least concentration at which growth counts as inhibited. The low end stands for a more susceptible organism, the high end for a less susceptible organism. For the compound `O=C(N/N=C/c1ccccc1)c1coc2ccccc12`, the MIC is 2 µg/mL (≈ 7.57 µM) in experiment [1] and more than 250 µg/mL in experiment [2]. Turning to `COc1ccc(/C=N/NC(=O)c2coc3ccccc23)c(OC)c1`, the MIC in experiment [1] is 128 µg/mL (≈ 395 µM); in experiment [2] it was more than 250 µg/mL. The like results for `O=C(N/N=C/c1ccc(O)cc1)c1coc2ccccc12` were, in that order, 64 µg/mL (≈ 228 µM) and more than 250 µg/mL. The like results for `O=C(N/N=C/c1ccccc1O)c1coc2ccccc12` were, in that order, 64 µg/mL (≈ 228 µM) and more than 250 µg/mL. The matching figures for `O=C(N/N=C/c1ccc(Cl)cc1)c1coc2ccccc12`: 128 µg/mL (≈ 428 µM) and more than 250 µg/mL.

`Cc1ccc(/C=N/NC(=O)c2coc3ccccc23)cc1`: the MIC in experiment [1] was 128 µg/mL (≈ 460 µM); in experiment [2] it was more than 250 µg/mL. The like results for `O=C(N/N=C/c1ccc([N+](=O)[O-])cc1)c1coc2ccccc12` were, in that order, 128 µg/mL (≈ 414 µM) and more than 250 µg/mL.

Consider `O=C(N/N=C/c1cc(Cl)cc(Cl)c1O)c1coc2ccccc12`, for which the MIC worked out at 128 µg/mL (≈ 367 µM) in experiment [1] and 31.2 µg/mL (≈ 89.5 µM) in experiment [2]. The matching figures for `O=C(N/N=C/c1cccc2ccccc12)c1coc2ccccc12`: 128 µg/mL (≈ 407 µM) and 125 µg/mL (≈ 398 µM). The matching figures for `O=C(N/N=C/c1c(Cl)cccc1Cl)c1coc2ccccc12`: 128 µg/mL (≈ 384 µM) and more than 250 µg/mL. The matching figures for `O=C(N/N=C/c1ccccc1)c1coc2c(Cl)cc(Cl)cc12`: 2 µg/mL (≈ 6 µM) and more than 250 µg/mL. Regarding `COc1ccc(/C=N/NC(=O)c2coc3c(Cl)cc(Cl)cc23)c(OC)c1`, the MIC in experiment [1] is 64 µg/mL (≈ 163 µM); in experiment [2] it was more than 250 µg/mL. `O=C(N/N=C/c1ccc(O)cc1)c1coc2c(Cl)cc(Cl)cc12`: the values for the minimum inhibitory concentration (MIC) in experiment [1] and in experiment [2] were 128 µg/mL (≈ 367 µM) and more than 250 µg/mL, respectively. Turning to `O=C(N/N=C/c1ccccc1O)c1coc2c(Cl)cc(Cl)cc12`, the MIC in experiment [1] is 32 µg/mL (≈ 91.6 µM); in experiment [2] it was more than 250 µg/mL. The like results for `O=C(N/N=C/c1ccc(Cl)cc1)c1coc2c(Cl)cc(Cl)cc12` were, in that order, 128 µg/mL (≈ 348 µM) and more than 250 µg/mL. The matching figures for `Cc1ccc(/C=N/NC(=O)c2coc3c(Cl)cc(Cl)cc23)cc1`: 128 µg/mL (≈ 369 µM) and less than 15.6 µg/mL. Take `O=C(N/N=C/c1ccc([N+](=O)[O-])cc1)c1coc2c(Cl)cc(Cl)cc12`: the MIC in experiment [1] turned out to be 128 µg/mL (≈ 338 µM); in experiment [2], 125 µg/mL (≈ 331 µM). The matching figures for `O=C(N/N=C/c1cc(Cl)cc(Cl)c1O)c1coc2c(Cl)cc(Cl)cc12`: 128 µg/mL (≈ 306 µM) and 250 µg/mL (≈ 598 µM). Take `O=C(N/N=C/c1cccc2ccccc12)c1coc2c(Cl)cc(Cl)cc12`: the values for the MIC in experiment [1] and in experiment [2] were 128 µg/mL (≈ 334 µM) and less than 15.6 µg/mL, respectively. `O=C(N/N=C/c1c(Cl)cccc1Cl)c1coc2c(Cl)cc(Cl)cc12`: the minimum inhibitory concentration (MIC) was 128 µg/mL (≈ 318 µM) in experiment [1] and 62.5 µg/mL (≈ 155 µM) in experiment [2].

Compound `NNC(=O)c1ccncc1` [ISONIAZID] registered a minimal inhibitory concentration (MIC) in experiment [1] of 0.25 µg/mL (≈ 1.82 µM).
